ChEMBL document CHEMBL1201862, “PubChem BioAssay data set” (2004)
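Interpolation was linear, between the two tested concentrations surrounding the appropriate level; five concentrations were tested over 48 hours in 96-well plates. GI50 = concentration required for 50% inhibition of growth.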 Active and inactive are the calls of the source. Cut-off read from the data, not from the text of the source: active = GI50 up to about 1.1 µM and inactive = higher.

Legend:
Experiment in all cases: inhibition of tumour cell growth, NCI panel, 48 h
[1] = tested on: SN12C
[2] = tested on: COLO 205
[3] = tested on: SK-MEL-28
[4] = tested on: OVCAR-8
[5] = tested on: CAKI-1
[6] = tested on: SNB-75
[7] = tested on: SNB-19
[8] = tested on: SF-268
[9] = tested on: RXF 393
[10] = tested on: M14
[11] = tested on: HOP-62
[12] = tested on: NCI-H23
[13] = tested on: EKVX
[14] = tested on: UACC-257
[15] = tested on: Malme-3M
[16] = tested on: HT-29
[17] = tested on: SK-OV-3
[18] = tested on: OVCAR-4

Measured: GI50

O=C(CCc1cc(-c2ccccc2)[nH]c(=S)n1)Nc1ccccc1[N+](=O)[O-]
inactive: [1] > 100 µM | [2] > 100 µM | [3] > 100 µM | [4] > 100 µM | [5] > 100 µM | [6] > 100 µM | [7] > 100 µM | [8] > 100 µM | [9] > 100 µM | [10] > 100 µM | [11] > 100 µM | [12] > 100 µM | [13] > 100 µM | [14] > 100 µM | [15] > 100 µM | [16] > 100 µM | [17] > 100 µM

O=C(O)/C=C/c1ccc(O)c(O)c1 [CAFFEIC ACID]
inactive: [1] > 100 µM | [2] > 100 µM | [3] > 100 µM | [4] > 100 µM | [5] > 100 µM | [6] > 24 µM | [18] > 100 µM | [7] > 100 µM | [8] > 100 µM | [9] > 100 µM | [10] > 100 µM | [11] > 100 µM | [12] > 100 µM | [13] > 100 µM | [14] > 100 µM | [15] > 100 µM | [16] > 100 µM | [17] > 100 µM

CCN(CC)CCOc1ccc(C(O)(Cc2ccc(OC)cc2)c2ccccc2)cc1 (stereo unspecified)
inactive: [1] 27.9 µM | [2] 12 µM | [3] 13.9 µM | [4] 33.6 µM | [5] 21.7 µM | [6] 12.6 µM | [18] 16.1 µM | [7] 24.6 µM | [8] 21.5 µM | [9] 13.1 µM | [10] 14.3 µM | [11] 15.9 µM | [12] 17 µM | [13] 26.9 µM | [14] 15.7 µM | [15] 18.5 µM | [16] 3.83 µM | [17] 23.6 µM

CCOC(=O)NC1C2CC(=O)OC(O2)C1OC(C)=O (stereo unspecified)
inactive: [1] 99.3 µM | [2] > 100 µM | [3] > 100 µM | [4] > 100 µM | [5] > 100 µM | [6] > 100 µM | [18] > 100 µM | [7] > 100 µM | [8] > 100 µM | [9] > 100 µM | [10] > 100 µM | [11] > 100 µM | [12] > 100 µM | [13] > 100 µM | [14] > 100 µM | [15] > 100 µM | [16] > 100 µM | [17] > 100 µM

C/C=C/C1(NS(=O)(=O)c2ccc(C)cc2)CCC(C(C)(C)C)CC1 (stereo unspecified)
inactive: [1] 18.2 µM | [2] 20 µM | [4] 36.1 µM | [5] 28.8 µM | [6] 53.6 µM | [18] 23 µM | [7] 42.2 µM | [8] 29.6 µM | [9] 24.3 µM | [10] 17.3 µM | [11] 22 µM | [12] 18.8 µM | [13] 23 µM | [14] 25.4 µM | [15] 22.2 µM | [16] 18 µM | [17] 27.4 µM

[N-]=[N+]=NCC(O)Cn1cnc2c(NC(=O)c3ccccc3)ncnc21 (stereo unspecified)
inactive: [1] > 100 µM | [2] 27.8 µM | [3] > 100 µM | [4] > 100 µM | [5] > 100 µM | [6] > 100 µM | [18] > 100 µM | [7] > 100 µM | [8] > 100 µM | [9] > 100 µM | [10] > 100 µM | [11] > 100 µM | [12] > 100 µM | [13] > 100 µM | [14] > 100 µM | [15] > 100 µM | [16] > 100 µM

C/C(=C\Cc1cc(O)ccc1O)CCc1c(C)c(O)c(O)c(C=O)c1C [PANICEIN C]
inactive: [1] 26.7 µM | [2] 18.6 µM | [3] 18.1 µM | [4] 17.9 µM | [5] 26.7 µM | [6] 33.3 µM | [18] 26.5 µM | [7] 35.2 µM | [8] 27 µM | [9] 16.1 µM | [10] 25.5 µM | [12] 18.4 µM | [13] 36.1 µM | [15] 32.9 µM | [16] 29.2 µM | [17] 26.7 µM

Cc1c2nc3ccccc3sc-2cc(=O)c1C
inactive: [1] > 10 µM | [2] 34.7 µM | [4] 49.7 µM | [5] 55 µM | [6] 52.6 µM | [18] 65.3 µM | [7] > 100 µM | [8] 25.6 µM | [9] 90.8 µM | [10] 55.3 µM | [11] > 100 µM | [12] 10.3 µM | [13] > 80.4 µM | [14] 10.3 µM | [15] 46.5 µM | [16] > 77.3 µM | [17] > 100 µM

N#CC(Sc1ccccc1)C(N)=O (stereo unspecified)
inactive: [1] > 100 µM | [2] > 100 µM | [4] > 100 µM | [5] > 100 µM | [6] > 100 µM | [18] > 100 µM | [7] > 100 µM | [8] > 100 µM | [9] > 100 µM | [10] > 100 µM | [11] > 100 µM | [12] > 100 µM | [13] > 100 µM | [14] > 100 µM | [15] > 100 µM | [16] > 100 µM | [17] > 100 µM

c1ccc2c(OCCSCCCCCCCCCCSCCOc3cccc4ccccc34)cccc2c1
inactive: [1] > 100 µM | [2] > 100 µM | [3] > 100 µM | [4] > 100 µM | [5] > 100 µM | [6] > 100 µM | [7] > 100 µM | [8] > 100 µM | [9] > 100 µM | [11] > 100 µM | [12] > 100 µM | [13] > 100 µM | [14] > 100 µM | [15] > 100 µM | [16] > 100 µM | [17] > 100 µM

O=C(O)/C(=C\c1ccccc1Cl)S(=O)(=O)c1ccccc1
inactive: [1] > 100 µM | [2] > 100 µM | [4] > 100 µM | [5] > 100 µM | [6] > 100 µM | [18] > 100 µM | [7] > 100 µM | [8] > 100 µM | [9] > 100 µM | [10] > 100 µM | [11] > 100 µM | [14] > 100 µM | [15] > 100 µM | [16] > 100 µM | [17] > 100 µM

CN[C@@H](C)[C@@H](N)c1ccccc1
inactive: [1] > 100 µM | [2] > 100 µM | [3] > 100 µM | [4] > 100 µM | [5] > 100 µM | [6] 62.8 µM | [7] > 100 µM | [9] > 100 µM | [10] > 100 µM | [12] > 100 µM | [13] > 100 µM | [14] > 100 µM | [15] > 100 µM | [16] > 100 µM | [17] > 100 µM
